Measurements published in PubChem BioAssay AID179 (DTP/NCI, 2004).
The source made the active and inactive calls.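 How the source made its calls: active means compounds giving half or more protection of infected cells from virus-caused growth loss, again on retest; inactive means the rest.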 Where a SMILES comes first, the peptide text is derived from it. Bridges are numbered along the chain shown (N, C = ends). [ ]: non-standard residue; d: D form. The star is where a group is joined. Cbz = O=C(OCc1ccccc1)*; Dab = NCC[CH](N)C(=O)O; Bn = c1ccc(C*)cc1

Tested on: CEM cells HIV-1 protection, formazan growth assay
Assay: NCI AIDS Antiviral Assay
Conditions: for IC50: measured here: growth of uninfected CEM cells
Outline: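 Soluble formazan readout of cell growth; CEM cells ± HIV-1; 5 drug concs. ≥50% protection → retest; ≥50% again = moderately active; reproducible 100% = confirmed active.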

## O=C(CC(C(=O)c1cccs1)c1ccsc1)c1ccsc1 (stereo not given)
  EC50: > 200 µM
  IC50: 11.5 µM

## COC(=O)c1ccccc1N1C(=O)Cc2ccccc2C1=O
  outcome: inactive

## O=C(Nc1nc2ccc(Cl)cc2[nH]1)c1ccccc1O
  EC50: > 200 µM
  IC50: 12 µM

## O=S1c2ccccc2SCSc2ccccc21
  EC50: > 200 µM
  IC50: > 200 µM

## CSc1c(C#N)c(=C(C#N)C#N)nc(C)/c1=C(\C)O
  EC50: > 100 µM
  IC50: > 100 µM

## CC(C)CC1NC(=O)C(Cc2ccccc2)NC(=O)C(Cc2ccccc2)NC(=O)C(NC(=O)C(Cc2ccc(OCc3ccccc3)cc2)NC(=O)OCc2ccccc2)CCNC1=O (stereo not given) (Cbz-Y(Bn)[Dab]FFL; lactam 2-C; configuration not given here)
  EC50: > 100 µM
  IC50: > 100 µM

## CC(=O)C(O)N1C(=O)C=CC1=O (stereo not given)
  EC50: > 50.1 µM
  IC50: 1.86 µM

## COc1cc(O)c(C(=O)/C=C/c2ccc(Cl)c(Cl)c2)c(OC)c1
  EC50: > 200 µM
  IC50: 3.02 µM

## C[n+]1c(-c2ccc(/C=N\NC(=O)c3ccc(C(=O)N/N=C/c4ccc(-c5cn6ccsc6[n+]5C)cc4)cc3)cc2)cn2ccsc21
  EC50: > 50.1 µM
  IC50: 0.501 µM

## NC(=O)CCC(NS(=O)(=O)c1ccc(NC(=O)c2ccccc2)cc1)C(=O)O (stereo not given)
  EC50: > 617 µM
  IC50: > 617 µM

## CC(=O)c1cccc(NC(=O)/C(=N\NC(=S)NN)C2C(=O)Nc3ccccc3S2=O)c1 (stereo not given)
  EC50: > 282 µM
  IC50: > 282 µM

## O=c1[nH]c(NCc2ccc(Cl)cc2)nc2nc[nH]c12
  EC50: > 200 µM
  IC50: 55 µM

## Clc1ccc2c(Cl)ncnc2c1I
  EC50: > 30.9 µM
  IC50: 7.41 µM

## O=Nc1c(O)[nH]c(=O)[nH]c1=O
  EC50: > 200 µM
  IC50: > 200 µM

## Cc1ccc(S(=O)(=O)NC(=O)NN2CCCCCC2)cc1
  EC50: > 200 µM
  IC50: > 200 µM

## Cc1ccc(NC(Nc2ccc(C)cc2C)=C(/C=C(\Cl)[N+](=O)[O-])[N+](=O)[O-])c(C)c1
  EC50: > 200 µM
  IC50: 2.51 µM

## CC1(C)CC(=O)C(CCC(=O)/C=C/c2ccccc2)C(=O)C1
  EC50: > 87.1 µM
  IC50: > 87.1 µM

## Nc1c(Cl)cc(/C=C2\C=Cc3ccccc32)cc1Cl
  EC50: > 18.2 µM
  IC50: > 18.2 µM

## COC(=O)C(=O)C(CC(=O)Nc1cc(Cl)ccc1Cl)C(=O)OC (stereo not given)
  EC50: > 7.59 µM
  IC50: > 7.59 µM

## CCOC(=O)N1C2C=CC(C2)N1C(=O)Nc1ccc(Cl)cc1 (stereo not given)
  EC50: > 200 µM
  IC50: 170 µM

## COc1cccc2c1cc([N+](=O)[O-])c1c(C(=O)O)cc3c(c12)OCO3
  EC50: > 200 µM
  IC50: 19.1 µM

## CCOC(=O)/C(F)=C/c1ccc(OC)cc1
  EC50: > 115 µM
  IC50: > 115 µM

## CCC[CH2][Sn]([Cl])([CH2]CCC)[CH2]CCC
  outcome: inactive

## COc1nc2c(nc(N)n2C2OCC(O)C(O)C2O)c(=O)n1C (stereo not given)
  outcome: inactive

## O=C(CC1C(=O)Nc2ccccc2S1=O)Nc1ccc(Cl)cc1 (stereo not given)
  outcome: inactive

## COc1cc([C@H]2CC(=O)C[C@@H](c3cc(OC)c(OC)c(OC)c3)C23C(=O)c2ccccc2C3=O)cc(OC)c1OC
  EC50: > 200 µM
  IC50: > 200 µM

## Nc1nc(Cl)c(/C=N\O)c(NCC2(CO)CC(=O)C2)n1
  EC50: > 200 µM
  IC50: 17 µM

## O=C1NC(=O)C(=Cn2c(=S)sc3ccccc32)C(=O)N1
  EC50: > 200 µM
  IC50: > 200 µM

## CC1=C/C(=C(/c2cccc(S(=O)(=O)O)c2)c2cc(C)c(O)c(C(=O)O)c2)C=C(C(=O)O)C1=O
  outcome: inactive

## CC(C)=CC[C@]12CCN[C@H]1N(S(=O)(=O)c1ccccc1)c1ccccc12
  EC50: > 200 µM
  IC50: 30.9 µM

## COc1ccc(CCCNC(=O)Cc2cc(OC)c(OC)cc2CO)cc1OC
  EC50: > 200 µM
  IC50: 17.8 µM

## O=C1N=NC2=C1c1c3ccccc3c(O)n1CC2
  EC50: > 200 µM
  IC50: 166 µM

## Clc1ncnc2c1ncn2CCCCCCCCCCCCn1cnc2c(Cl)ncnc21
  outcome: inactive

## S=C(N1CCN(c2cccc(Cl)c2)CC1)N1CCN(c2cccc(Cl)c2)CC1
  EC50: > 200 µM
  IC50: 72.4 µM

## CC(=O)OCc1cc(OC(C)=O)c2cc3c(OC(C)=O)cccc3c(OC(C)=O)c2c1
  EC50: > 200 µM
  IC50: 28.2 µM

## CCN(CC)c1ccc2nc3c4ccccc4c(=O)cc-3n(-c3ccccc3)c2c1
  EC50: > 200 µM
  IC50: 4.57 µM

## CCOC(CNc1nn2c(C)nnc2s1)OCC
  EC50: > 200 µM
  IC50: > 200 µM

## COc1ccc(/C=C\c2cc(OC)c(OC)c(OC)c2)cc1OC(=O)CC(NC(=O)OC(C)(C)C)C(=O)OC(C)(C)C (stereo not given)
  EC50: > 2 µM
  IC50: 0.00331 µM

## CN(C)c1c(-c2ccc(Cl)cc2)cc(-c2ccccc2)[nH]c1=O
  EC50: > 20.9 µM
  IC50: > 20.9 µM

## COC(=O)C1(NC(=O)C(Cc2ccccc2)N(C(=O)OC(C)(C)C)C(=O)OC(C)(C)C)CCCC1 (stereo not given)
  EC50: > 200 µM
  IC50: 110 µM

## CC(=O)Nc1ccc(C(=O)NN2C(=O)C(Cl)C2/C=C/c2ccccc2)cc1 (stereo not given)
  EC50: 135 µM
  IC50: 166 µM

## COc1cc(OC)c(-c2cc(=O)c3c(OC)c(OC)c(OC)c(OC)c3o2)cc1OC
  EC50: > 200 µM
  IC50: 19.5 µM

## COc1ccc2c(c1)CCc1cc(OC)ccc1/[N+]([O-])=[N+]\2[O-]
  EC50: > 17.4 µM
  IC50: > 17.4 µM
